Data from patent US20140135319A1, “6-SUBSTITUTED IMIDAZOPYRAZINES FOR USE AS MPS-1 AND TKK INHIBITORS IN THE TREATMENT OF HYPERPROLIFERATIVE DISORDERS” (BAYER INTELLECTUAL PROPERTY GMBH, priority 2010, published 2014).

Molecular target: T1, human kinase Mps-1 (Homo sapiens, UniProt P33981)
T1 construct: N-terminally GST-tagged human full length recombinant Mps-1 kinase; GST (N); purchased Invitrogen, Karslruhe, Germany PV4071
T1 sequence (P33981 1-857): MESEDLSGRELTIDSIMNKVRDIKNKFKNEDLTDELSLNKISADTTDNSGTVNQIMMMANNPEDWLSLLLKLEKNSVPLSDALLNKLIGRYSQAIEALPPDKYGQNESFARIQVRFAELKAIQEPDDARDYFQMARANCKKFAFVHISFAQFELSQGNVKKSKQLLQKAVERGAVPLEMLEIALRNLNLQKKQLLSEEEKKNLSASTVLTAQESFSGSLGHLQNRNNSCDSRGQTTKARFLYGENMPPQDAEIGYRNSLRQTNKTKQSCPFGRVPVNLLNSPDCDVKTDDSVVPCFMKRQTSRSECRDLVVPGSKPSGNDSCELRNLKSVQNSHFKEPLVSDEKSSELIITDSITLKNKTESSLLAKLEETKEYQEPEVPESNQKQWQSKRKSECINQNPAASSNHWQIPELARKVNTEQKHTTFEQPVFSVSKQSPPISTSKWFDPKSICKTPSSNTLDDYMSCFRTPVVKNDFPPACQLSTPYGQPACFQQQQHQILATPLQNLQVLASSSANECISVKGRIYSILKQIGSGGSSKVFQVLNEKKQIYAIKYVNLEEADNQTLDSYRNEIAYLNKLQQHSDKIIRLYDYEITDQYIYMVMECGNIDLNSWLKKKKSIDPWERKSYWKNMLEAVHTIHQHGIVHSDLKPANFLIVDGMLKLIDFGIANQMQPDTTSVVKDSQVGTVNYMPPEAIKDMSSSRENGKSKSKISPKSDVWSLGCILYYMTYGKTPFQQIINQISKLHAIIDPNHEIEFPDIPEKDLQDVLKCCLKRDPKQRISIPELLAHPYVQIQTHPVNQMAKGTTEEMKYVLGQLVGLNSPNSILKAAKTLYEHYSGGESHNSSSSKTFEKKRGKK
Assay: Mps-1 kinase assay (TR-FRET)
Format: biochemical
Settings: GST-tagged human full length recombinant Mps-1; 10 μM ATP; 1 μM peptide substrate; 60 min at 22° C.
In short: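 TR-FRET read-out: after 1 h binding at 22° C, Eu-labelled anti-phospho-Ser/Thr antibody transfers to SA-XLent on the phosphorylated biotinylated peptide. The enzyme is GST-tagged full-length human Mps-1, typically about 1 nM final, in the linear range.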

SMILES | IC50 [nM]
O=C(NC1CC1)c1ccc(-c2cnc3c(NCc4ccncc4)nc(-c4ccncc4)cn23)cc1 [Example 3-19, N-cyclopropyl-4-{6-(pyridin-4-yl)-8-[(pyridin-4-ylmethyl)amino]imidazo [1,2-a]pyrazin-3-yl} benzamide] | 2.1
Cc1cc(-c2cnc3c(NCCC(F)(F)F)nc(Sc4ccccc4)cn23)ccc1C(=O)NC1CC1 [Example 15-2, N-cyclopropyl-2-methyl-4-{6-(phenylsulfanyl)-8-[(3,3,3-trifluoropropyl)amino]imidazo[1,2-a]pyrazin-3-yl}benzamide] | < 1
CC(C)CNc1nc(C2=CCOCC2)cn2c(-c3ccc(C(=O)NC4CC4)c(F)c3)cnc12 [Example 1-52, N-cyclopropyl-4-{6-(3,6-dihydro-2H-pyran-4-yl)-8-[(2-methylpropyl)amino]imidazo[1,2-a]pyrazin-3-yl}-2-fluoro-benzamide] | 8.2
Cc1cc(-c2cnc3c(NC[C@H](O)C(F)(F)F)nc(-c4ccnn4C)cn23)ccc1C(=O)NC1CC1 [Example 3-38, N-cyclopropyl-2-methyl-4-{6-(1-methyl-1H-pyrazol-5-yl)-8-[(3,3,3-trifluoro-2-hydroxypropyl)amino]imidazo[1,2-a]pyrazin-3-yl}benzamide] | 7.2
O=C(NC1CC1)c1ccc(-c2cnc3c(NCC4CCCO4)nc(-c4ccn[nH]4)cn23)cc1Cl (centres unmarked) [Example 1-44, 2-chloro-N-cyclopropyl-4-{6-(1H-pyrazol-5-yl)-8-[(tetrahydrofuran-2-ylmethyl)amino]imidazo [1,2-a]pyrazin-3-yl} benzamide] | 127
CC(C)CCNc1nc(-c2ccncc2)cn2c(-c3ccc(C(=O)NC4CC4)cc3)cnc12 [Example 3-6, N-cyclopropyl-4-{8-[(3-methylbutyl)amino]-6-(pyridin-4-yl)imidazo [1,2-a]pyrazin-3-yl} benzamide] | 2.4
Cc1cc(-c2cnc3c(NCC4CN(C)CCO4)nc(C4=CCOCC4)cn23)ccc1C(=O)NC1CC1 (centres unmarked) [Example 6-7, N-cyclopropyl-4-[6-(3,6-dihydro-2H-pyran-4-yl)-8-{[(4-methyl-morpholin-2-yl)methyl]amino}imidazo[1,2-a]pyrazin-3-y1]-2-methylbenzamide] | 294
CC(C)(O)CNc1nc(-c2ccn[nH]2)cn2c(-c3ccc(C(=O)NC4CC4)c(F)c3)cnc12 [Example 1-59, N-cyclopropyl-2-fluoro-4-{8-[(2-hydroxy-2-methylpropyl)amino]-6-(1H-pyrazol-5-yl)imidazo [1,2-a]pyrazin-3-yl} benzamide] | 101
C[S+]([O-])CCNc1nc(-c2ccncc2)cn2c(-c3ccc(C(=O)NC4CC4)cc3)cnc12 (centres unmarked) [Example 3-25, N-cyclopropyl-4-[8-{[2-(methylsulfinyl)ethyl]amino}-6-(pyridin-4-yl)imidazo[1,2-a]pyrazin-3-yl]benzamide] | 19.6
Cc1cc(-c2cnc3c(NCCC(F)(F)F)nc(Sc4cccc(F)c4)cn23)ccc1C(=O)NC1CC1 [Example 15-3, N-cyclopropyl-4-{6-[(3-fluorophenyl)sulfanyl]-8-[(3,3,3-trifluoropropyl)amino]imidazo[1,2-a]pyrazin-3-yl}-2-methylbenzamide] | < 1
Cc1cc(-c2cnc3c(NCC4CNC(=O)C4)nc(C4=CCOCC4)cn23)ccc1C(=O)NC1CC1 (centres unmarked) [Example 6-13, N-cyclopropyl-4-[6-(3,6-dihydro-2H-pyran-4-yl)-8-{[(5-oxopyrrolidin-3-yl)methyl]amino}imidazo [1,2-a]pyrazin-3-yl]-2-methylbenzamide] | 29.9
CC(C)CNc1nc(C(N)=O)cn2c(-c3ccc(C(=O)NC4CC4)cc3)cnc12 [Example 14-1, 3-[4-(cyclopropylcarbamoyl)phenyl]-8-[(2-methylpropyl)amino]imidazo[1,2-a]pyrazine-6-carboxamide] | 9.9
Cc1cc(-c2cnc3c(NCCC(F)(F)F)nc(-c4cc[nH]n4)cn23)ccc1C(=O)NC1CC1 [Example 1-77, N-cyclopropyl-2-methyl-4-{6-(1H-pyrazol-3-yl)-8-[(3,3,3-trifluoropropyl)amino]imidazo[1,2-a]pyrazin-3-yl}benzamide] | 3.3
C=CCOC(=O)CCCNc1nc(-c2ccccc2)cn2c(-c3ccc(C(=O)NC4CC4)cc3)cnc12 [Example 3-44, Allyl 4-({3-[4-(cyclopropylcarbamoyl)phenyl]-6-phenylimidazo[1,2-a]pyrazin-8-yl}amino)butanoate] | 14.2
NS(=O)(=O)CCNc1nc(-c2ccncc2)cn2c(-c3ccc(C(=O)NC4CC4)cc3)cnc12 [Example 3-35, N-cyclopropyl-4-{6-(pyridin-4-yl)-8-[(2-sulfamoylethyl)amino]imidazo [1,2-a]pyrazin-3-yl} benzamide] | 1.9
Cn1nccc1CNc1nc(C2=CCOCC2)cn2c(-c3ccc(C(=O)NC4CC4)c(F)c3)cnc12 [Example 1-67, N-cyclopropyl-4-[6-(3,6-dihydro-2H-pyran-4-yl)-8-{[(1-methyl-1H-pyrazol-5-yl)methyl]amino}imidazo[1,2-a]pyrazin-3-yl]-2-fluoro-benzamide] | 15.7
O=C(NC1CC1)c1ccc(-c2cnc3c(NCCC(F)(F)F)nc(-c4ccncc4)cn23)cc1F [Example 1-53, N-cyclopropyl-2-fluoro-4-{6-(pyridin-4-yl)-8-[(3,3,3-trifluoropropyl)amino]imidazo[1,2-a]pyrazin-3-yl}benzamide] | 3.8
CC(C)CNc1nc(C2CCN(C)CC2)cn2c(-c3ccc(C(=O)NC4CC4)cc3)cnc12 [Example 7-6, N-cyclopropyl-4-{6-(1-methylpiperidin-4-yl)-8-[(2-methylpropyl)amino]imidazo[1,2-a]pyrazin-3-yl}benzamide] | 3.9
CC(C)CNc1nc(-c2ccc(CN(C)C)cc2)cn2c(-c3ccc(C(=O)NC4CC4)cc3)cnc12 [Example 1-31, N-cyclopropyl-4-(6-{4-[(dimethylamino)methyl]phenyl}-8-[(2-methyl-propyl)amino]imidazo [1,2-a]pyrazin-3-yl) benzamide] | 3.3
CC(C)CNc1nc(-c2ccsc2)cn2c(-c3ccc(C(=O)NC4CC4)cc3)cnc12 [Example 1-10, N-cyclopropyl-4-{8-[(2-methylpropyl)amino]-6-(thiophen-3-yl)imidazo [1,2-a]pyrazin-3-yl} benzamide] | 3.4
CC(C)CNc1nc(C2=CCOCC2)cn2c(-c3ccc(C(=O)NC4CC4)c(Cl)c3)cnc12 [Example 1-35, 2-chloro-N-cyclopropyl-4-{6-(3,6-dihydro-2H-pyran-4-yl)-8-[(2-methyl-propyl)amino]imidazo [1,2-a]pyrazin-3-yl} benzamide] | 11.4
CC(C)(O)CNc1nc(-c2ccoc2)cn2c(-c3ccc(C(=O)NC4CC4)c(Cl)c3)cnc12 [Example 1-41, 2-chloro-N-cyclopropyl-4-{6-(furan-3-yl)-8-[(2-hydroxy-2-methylpropyl)amino]imidazo[1,2-a]pyrazin-3-yl}benzamide] | 55.3
CC(C)CNc1nc(C2=CCN(C)CC2)cn2c(-c3ccc(C(=O)NC4CC4)cc3)cnc12 [Example 1-27, N-cyclopropyl-4-{8-[(2-methylpropyl)amino]-6-(1-methyl-1,2,3,6-tetra-hydropyridin-4-yl)imidazo[1,2-a]pyrazin-3-yl}benzamide] | 7.5
